These results are taken from the RepoRT retention time repository (doi:10.1016/j.chroma.2012.12.030).

SMILES strings stand for the structures.

This data set in a line: RP, Waters ACQUITY UPLC BEH C18, 100 × 2.1 mm, 1.7 µm, 60 °C, 0.3 mL/min, estimated dead time 0.73 min; A: water + 0.01% formic acid; B: methanol + 0.01% formic acid; gradient (min/%B) 0/10 14/90 16/90. Conditions: stereoisomer not certain.

Turning to `CC(N)Cc1ccccc1` (stereo not given), the LC retention time was 2.8 min. In the case of `CCCCC(=O)N(Cc1ccc(-c2ccccc2-c2nn[nH]n2)cc1)C(C(=O)O)C(C)C` (stereo not given) it was 10.6 min; in that of `Cc1ccc(C)c(OCCCC(C)(C)C(=O)O)c1`, 12.8 min. As for `CNC(C)Cc1ccc2c(c1)OCO2` (stereo not given), the LC retention time is 3.02 min.

With `COc1ccc(C(CN(C)C)C2(O)CCCCC2)cc1` (stereo not given), the LC retention time was 6.34 min. Regarding `CCNC(C)Cc1ccc2c(c1)OCO2` (stereo not given), the LC retention time is 3.48 min. Regarding `COc1nc(N)nc(NC(C)(C)C)n1`, the LC retention time was 6.25 min. Then `CCCC1CC(C(=O)NC(C(C)O)C2OC(SC)C(O)C(O)C2O)N(C)C1` (stereo not given), with 3.13 min; and `C=C1CC2C3C=C(C)C4=CC(=O)CCC4(C)C3CCC2(C)C1(OC(C)=O)C(C)=O` (stereo not given), with 11.8 min. In the case of `COc1ccc2nc(S(=O)Cc3ncc(C)c(OC)c3C)[nH]c2c1` (stereo not given) it was 7.55 min. For the compound `COc1cc(Cc2cnc(N)nc2N)cc(OC)c1OC`, the LC retention time is 3.15 min.

`COc1cc(O)c(C(=O)c2ccccc2)cc1S(=O)(=O)O`: the LC retention time was 6.4 min. In the case of `COC(=O)C1C(OC(=O)c2ccccc2)CC2CCC1N2C` (stereo not given), the LC retention time was 4.66 min. Regarding `CC1CCCC(=O)CCCC=Cc2cc(O)cc(O)c2C(=O)O1` (stereo not given), the LC retention time is 10.3 min. With `COC(=O)Nc1nc2ccccc2[nH]1`, the LC retention time was 3.89 min. `COc1cc2c(c3oc(=O)c4c(c13)CCC4=O)C1C=COC1O2` (stereo not given): the LC retention time is 7.15 min. Turning to `CCn1cc(C(=O)O)c(=O)c2cnc(N3CCNCC3)nc21`, the LC retention time was 2.7 min. Regarding `COc1ccc(C(=O)c2ccccc2)c(O)c1`, the LC retention time is 11.1 min. In the case of `CNC(=O)CSP(=S)(OC)OC` it was 4.63 min. For `O=C1OC(CN2CCOCC2)CN1N=Cc1ccc([N+](=O)[O-])o1` (stereo not given), the LC retention time was 2.64 min.

For the compound `CCCCC1=NC2(CCCC2)C(=O)N1Cc1ccc(-c2ccccc2-c2nn[nH]n2)cc1`, the LC retention time is 10.3 min. For the compound `CC(=O)OCC12CC(OC(=O)CC(C)C)C(C)=CC1OC1C(O)C(OC(C)=O)C2(C)C12CO2` (stereo not given), the LC retention time was 10 min. Consider `CC(COc1ccc(Oc2ccccc2)cc1)Oc1ccccn1` (stereo not given), for which the LC retention time was 13.4 min. For the compound `O=C(OC1CC2CCC([NH2+]2)C1C(=O)[O-])c1ccccc1` (stereo not given), the LC retention time is 4.3 min.

Turning to `CNC(=O)Oc1cccc2ccccc12`, the LC retention time is 7.81 min. Take `Nc1ccc(S(=O)(=O)Nc2ncccn2)cc1`: the LC retention time is 2.09 min.

In the case of `COC=C(C(=O)OC)c1ccccc1Oc1cc(Oc2ccccc2C#N)ncn1`, the LC retention time was 10 min. In the case of `CCn1cc(C(=O)O)c(=O)c2ccc(C)nc21`, the LC retention time is 7.1 min. For `CCC1OC(=O)C(C)C(OC2CC(C)(OC)C(O)C(C)O2)C(C)C(OC2OC(C)CC(N(C)C)C2O)C(C)(OC)CC(C)C(=O)C(C)C(O)C1(C)O` (stereo not given), the LC retention time is 9.78 min. Regarding `CCC1OC(=O)C(C)C(OC2CC(C)(OC)C(O)C(C)O2)C(C)C(OC2OC(C)CC(N(C)C)C2O)C(C)(O)CC(C)C(=NOCOCCOC)C(C)C(O)C1(C)O` (stereo not given), the LC retention time was 9.99 min. Regarding `CNC(=O)Oc1cccc2c1OC(C)(C)C2`, the LC retention time is 7.48 min.

Regarding `CC12CCC3c4ccc(OS(=O)(=O)O)cc4CCC3C1CCC2=O` (stereo not given), the LC retention time was 10.6 min. Regarding `CCC(C)C(=O)OC1CC(O)C=C2C=CC(C)C(CCC(O)CC(O)CC(=O)O)C21` (stereo not given), the LC retention time is 9.27 min.

On to `CNC(=O)ON=C(C)SC`, for which the LC retention time is 3.09 min. With `C#CC1(O)CCC2C3CCc4cc(O)ccc4C3CCC21C` (stereo not given), the LC retention time is 10.1 min. Take `CCn1cc(C(=O)O)c(=O)c2cc3c(cc21)OCO3`: the LC retention time was 5.67 min.

Consider `CCNc1nc(NC(C)(C)C)nc(OC)n1`, for which the LC retention time was 9.07 min. As to `CCOC(=O)C1C(OC(=O)c2ccccc2)CC2CCC1N2C` (stereo not given), the LC retention time is 5.78 min. As to `COc1nn(CSP(=S)(OC)OC)c(=O)s1`, the LC retention time is 9.06 min.

Consider `CN1C2CCC1C(C(=O)O)C(OC(=O)c1ccccc1)C2` (stereo not given), for which the LC retention time was 4.08 min. Regarding `CC1(C)SC2C(NC(=O)Cc3ccccc3)C(=O)N2C1C(=O)O` (stereo not given), the LC retention time is 7.08 min. As to `CNC(C)Cc1ccccc1` (stereo not given), the LC retention time is 3.05 min.

Take `Cc1onc(-c2ccccc2)c1C(=O)NC1C(=O)N2C1SC(C)(C)C2C(=O)O` (stereo not given): the LC retention time is 8.19 min. For the compound `COc1cc2c(c3oc(=O)c4c(c13)CCOC4=O)C1C=COC1O2` (stereo not given), the LC retention time was 6.35 min. `CCNc1nc(NCC)[nH]c(=O)n1`: the LC retention time is 2.83 min. Regarding `CCNc1nc(NC(C)(C)C)nc(SC)n1`, the LC retention time is 10.6 min.

In the case of `CCCCOC(=O)c1ccc(O)cc1`, the LC retention time was 10.3 min.

In the case of `CCCCC(C)C(OC(=O)CC(CC(=O)O)C(=O)O)C(CC(C)CC(O)CCCCC(O)CC(O)C(C)N)OC(=O)CC(CC(=O)O)C(=O)O` (stereo not given), the LC retention time is 9.48 min. In the case of `Cc1cc(NS(=O)(=O)c2ccc(N)cc2)no1` it was 3.91 min. `COC(=O)C1C2CCC(CC1OC(=O)c1ccccc1)N2` (stereo not given): the LC retention time is 5.14 min. With `CC12CCC3c4ccc(OS(=O)(=O)O)cc4CCC3C1CCC2O` (stereo not given), the LC retention time is 10.4 min. Then `CCOP(=S)(OCC)Oc1cc(C)nc(C(C)C)n1`, with 11.9 min; and `CCN(CC)c1nc(C)cc(OP(=S)(OC)OC)n1`, with 12 min; and `O=C(c1ccc(O)cc1O)c1ccc(O)cc1O`, with 6.4 min. For the compound `CC(=O)OCC12CC(OC(=O)CC(C)C)C(C)=CC1OC1C(O)C(O)C2(C)C12CO2` (stereo not given), the LC retention time is 9.07 min. Then `CC(C)c1ccc(NC(=O)N(C)C)cc1`, with 8.83 min; and `CC(=O)OC1(C(C)=O)CCC2C3C=C(C)C4=CC(=O)CCC4(C)C3CCC21C` (stereo not given), with 11.5 min; and `CCOC(=O)c1ccc(O)cc1`, with 7.54 min.

Take `CCC(C)(C)C(=O)OC1CC(C)C=C2C=CC(C)C(CCC3CC(O)CC(=O)O3)C21` (stereo not given): the LC retention time was 14.2 min. `CC(=O)Nc1ccc(O)cc1`: the LC retention time is 2.05 min. In the case of `CNC(C)C(=O)c1ccccc1` (stereo not given), the LC retention time was 2.26 min. In the case of `CCC(=C(CC)c1ccc(O)cc1)c1ccc(O)cc1`, the LC retention time is 10.3 min. Regarding `O=C(O)c1ccccc1O`, the LC retention time is 4.8 min. For `CCC1OC(=O)CC(O)C(C)C(OC2OC(C)C(OC3CC(C)(O)C(O)C(C)O3)C(N(C)C)C2O)C(CC=O)CC(C)C(=O)C=CC(C)=CC1COC1OC(C)C(O)C(OC)C1OC` (stereo not given), the LC retention time was 8.84 min.

Turning to `CCNc1nc(NC(C)(C)C)[nH]c(=O)n1`, the LC retention time is 5.25 min. In the case of `CCOP(=S)(OCC)Oc1ccc(=O)n(-c2ccccc2)n1` it was 10.7 min. On to `CC(C)N1C(=O)c2ccccc2NS1(=O)=O`, for which the LC retention time was 6.66 min. Regarding `CC(=O)O[Si](CCCC(O)COC(=O)c1ccc(O)cc1)(OC(C)=O)c1ccccc1` (stereo not given), the LC retention time is 5.92 min.

Turning to `CCCCC(C)C(OC(=O)CC(CC(=O)O)C(=O)O)C(CC(C)CCCCCCC(O)CC(O)C(C)N)OC(=O)CC(CC(=O)O)C(=O)O` (stereo not given), the LC retention time was 11 min. In the case of `CNC(=O)Oc1cc(C)c(SC)c(C)c1`, the LC retention time was 9.95 min. As for `COP(=S)(OC)SCn1nnc2ccccc2c1=O`, the LC retention time is 11.5 min. Then `COCC(=O)N(c1c(C)cccc1C)C(C)C(=O)OC` (stereo not given), with 9.09 min; and `CCSC(=O)N1CCCCCC1`, with 10.4 min.

`CC12CCC3c4ccc(O)cc4CCC3C1CC(O)C2O` (stereo not given): the LC retention time was 6.96 min. As for `CC12CCC3c4ccc(O)cc4CCC3C1CCC2=O` (stereo not given), the LC retention time was 9.99 min. Then `CCNc1nc(NC(C)C)[nH]c(=O)n1`, with 3.93 min.

As for `Cc1nnc(N=S(=O)(O)c2ccc(N)cc2)s1`, the LC retention time was 3.19 min. With `NC(=O)N1c2ccccc2C=Cc2ccccc21`, the LC retention time was 8.1 min. As for `CCCCCc1cc(O)c2c(c1)OC(C)(C)C1CCC(C(=O)O)=CC21` (stereo not given), the LC retention time is 13.9 min. For `CCC1OC(=O)C(C)C(OC2CC(C)(OC)C(O)C(C)O2)C(C)C(OC2OC(C)CC(N(C)C)C2O)C(C)(O)CC(C)C(=O)C(C)C(O)C1(C)O` (stereo not given), the LC retention time is 8.5 min.

As to `COc1cc2c(c3oc(=O)c4c(c13)CCC4=O)C1CCOC1O2` (stereo not given), the LC retention time was 6.76 min. Then `c1ccc2[nH]c(-c3cscn3)nc2c1`, with 4.8 min; and `CC1=CC2OC3C(O)CC(C)(C34CO4)C2(CO)C(O)C1=O` (stereo not given), with 2.83 min; and `CC(C)N1C(=O)N(c2ccccc2)CSC1=NC(C)(C)C`, with 13.1 min. In the case of `CC(N)Cc1ccc2c(c1)OCO2` (stereo not given) it was 2.97 min; in that of `CCCOC(=O)c1ccc(O)cc1`, 8.97 min; in that of `COc1ccc2cc(C(C)C(=O)O)ccc2c1` (stereo not given), 9.74 min. In the case of `COc1cc2c(c3oc(=O)c4c(c13)CCOC4=O)C1CCOC1O2` (stereo not given), the LC retention time was 5.93 min. Regarding `COc1cc2c(c3oc(=O)c4c(c13)CCC4=O)C1(O)C=COC1O2` (stereo not given), the LC retention time was 6.04 min. Take `Cc1cc(C)nc(NS(=O)(=O)c2ccc(N)cc2)n1`: the LC retention time is 3.59 min. In the case of `O=C1OCCN1N=Cc1ccc([N+](=O)[O-])o1`, the LC retention time was 2.96 min. As for `CC(C)Cc1ccc(C(C)C(=O)O)cc1` (stereo not given), the LC retention time was 11.8 min. On to `CCOC(=O)CC(SP(=S)(OC)OC)C(=O)OCC` (stereo not given), for which the LC retention time was 11 min. `Cc1cc2c(s1)Nc1ccccc1N=C2N1CCN(C)CC1`: the LC retention time was 3.44 min. As to `CC(=O)OC1(C(C)=O)CCC2C3CC(C)C4=CC(=O)CCC4(C)C3CCC21C` (stereo not given), the LC retention time was 11.7 min.
